Holding throughout (type): in vivo
The test system of experiment [1] is rice cultivar Zhonghua 11. As to the kind of experiment: Spraying of stems and leaves of regenerated T0 rice plants with Haloxyfop-P. The source says: According to the growth state of the regenerated plants, the T0 generation plants regenerated on the medium were placed in water for 5 to 30 days, and then the plant stems and leaves were directly sprayed with Haloxyfop-P, and the spray concentration range is between 0.1 and 2 times of the recommended concentration of commercial preparations. Four weeks after spraying, a total of 5 surviving mutants, ie, herbicide-resistant mutants, were obtained (FIG. 3).

The subject of experiment [2] is rice tissue culture seedlings. Description: Spraying of rice tissue culture seedlings with HPPD herbicide. Particulars: about two weeks after spraying, ⅛ of the field concentration; for leaves and growth of overexpressing positive rice seedlings: rice overexpressing HPPD protein; for leaves of wild-type rice tissue culture seedlings: wild-type rice without resistance. The protocol:
The rice tissue culture seedlings overexpressing HPPD protein were used as the positive control, and the wild-type rice plants of the same stage and variety were used as the negative control. Each group of 8 plants was sprayed with different concentration gradients of herbicide: mesotrione or Topramezone. […] The herbicide concentration, that is, ⅛ of the field concentration of mesotrione or Topramezone, is a suitable screening concentration. The rice plants obtained in Example 2 were treated at this screening concentration to obtain herbicide-resistant plants

The test system of experiment [3] is wheat (Triticum aestivum L.). Description: Herbicide screening: imazapic added to wheat rooting medium. How it is done:
The existing imazapic-resistant wheat plants were used as positive control, and wild-type wheat was used as negative control. Different concentrations of imazapic were added to the wheat rooting medium, and an appropriate screening concentration was found, that is, 1/15 of the concentration of imazapic used in the field.

In the case of `C[C@@H](Oc1ccc(Oc2ncc(C(F)(F)F)cc2Cl)cc1)C(=O)O` [Haloxyfop-P], the “number of surviving (herbicide-resistant) mutants” value in experiment [1] (base-edited T0 plants, four weeks after spraying, 0.1 to 2 times the recommended concentration of commercial preparations) is given as 5. The “state of heart leaves of wild-type rice after spraying” value in experiment [1] (wild-type Zhonghua No. 11 (WT), FIG. 3) was “dry and dead”.
With `Cc1c(C(=O)c2cnn(C)c2O)ccc(S(C)(=O)=O)c1C1=NOCC1` [Topramezone], in experiment [2], the “leaves and growth of overexpressing positive rice seedlings” value was “normal and grew normally”; the “leaves of wild-type rice tissue culture seedlings” value is “turned white and then withered slowly”.
On to `Cc1cnc(C2=NC(=O)C(C)(C(C)C)N2)c(C(=O)O)c1` (centres unmarked) [imazapic], for which, in experiment [3] (existing imazapic-resistant (overexpression-positive) wheat, rooting medium with 1/15 of the field concentration of imazapic), the “rooting of positive control wheat” value is given as “grow roots normally”. In experiment [3] (wild-type wheat (negative control), rooting medium with 1/15 of the concentration of imazapic used in the field), the “rooting of wild-type wheat” value is given as “significantly inhibited”.
`CS(=O)(=O)c1ccc(C(=O)C2C(=O)CCCC2=O)c([N+](=O)[O-])c1` [mesotrione]: in experiment [2], the “leaves and growth of overexpressing positive rice seedlings” value is “normal and grew normally”; the “leaves of wild-type rice tissue culture seedlings” value was “turned white and then withered slowly”.

Values taken from US20230257761A1, “HERBICIDE RESISTANT PLANT” (INSTITUTE OF GENETICS AND DEVELOPMENTAL BIOLOGY, CHINESE …, priority 2019, published 2023).
